Source: ChEMBL document CHEMBL1139566, “Discovery of AICAR Tfase inhibitors that disrupt requisite enzyme dimerization” (Bioorg Med Chem Lett, 2005)
The source made the active and inactive calls. The rule behind the calls is not given here. Peptide text beside a SMILES is read from it. * marks the point of attachment. NHPhenethyl = c1ccc(CCN*)cc1; Bz = O=C(c1ccccc1)*

The compounds below were run against T1, Bifunctional purine biosynthesis protein ATIC (Homo sapiens, UniProt P31939) (assay: Inhibition constant against AICAR formyltransferase).
Target sequence in this assay (P31939 whole entry): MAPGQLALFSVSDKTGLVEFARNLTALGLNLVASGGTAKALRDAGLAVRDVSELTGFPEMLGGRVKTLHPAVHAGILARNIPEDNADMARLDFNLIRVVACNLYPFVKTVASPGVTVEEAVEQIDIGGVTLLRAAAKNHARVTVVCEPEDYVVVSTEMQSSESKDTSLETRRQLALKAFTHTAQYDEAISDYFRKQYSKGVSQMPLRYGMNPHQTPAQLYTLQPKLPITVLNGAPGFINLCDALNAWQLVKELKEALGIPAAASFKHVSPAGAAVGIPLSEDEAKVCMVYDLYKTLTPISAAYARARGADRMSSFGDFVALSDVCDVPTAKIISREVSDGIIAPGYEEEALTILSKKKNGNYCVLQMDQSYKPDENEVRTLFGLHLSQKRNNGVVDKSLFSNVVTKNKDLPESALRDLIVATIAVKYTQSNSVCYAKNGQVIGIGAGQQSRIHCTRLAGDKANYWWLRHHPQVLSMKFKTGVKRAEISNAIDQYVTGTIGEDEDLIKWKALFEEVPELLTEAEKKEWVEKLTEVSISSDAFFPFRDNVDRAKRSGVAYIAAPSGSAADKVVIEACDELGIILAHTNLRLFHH

| SMILES | Ki |
| --- | --- |
| O=C(CNC(=O)CNC(=O)c1cccc(I)c1)NCCc1ccccc1 | 8 µM |
| COc1ccc(CNC(=O)CN(CC(=O)NCCc2ccccc2)C(=O)CNC(=O)c2cccc(I)c2)cc1 | 3.1 µM |

These compounds were tested against T1, Bifunctional purine biosynthesis protein ATIC (assay: Average inhibition of AICAR formyltransferase at 25 uM and 50 uM concentration relative to cappsin 2; Inactive).
Target sequence in this assay (P31939 whole entry, looked up): as the sequence (P31939 whole entry) above

| SMILES | inhibition |
| --- | --- |
| CN(CC(=O)NCCc1ccccc1)C(=O)CNC(=O)c1cccc(I)c1 | inactive |
| O=C(CNC(=O)CNC(=O)c1ccccc1)NCCc1ccccc1 (Bz-Gly-Gly-NHPhenethyl) | inactive |
| O=C(CNC(=O)CNC(=O)c1cccc([N+](=O)[O-])c1)NCCc1ccccc1 | inactive |
| O=C(CNC(=O)c1cccc(I)c1)NCC(=O)OCCc1ccccc1 | inactive |
| COC(=O)CN(CC(=O)NCCc1ccccc1)C(=O)CNC(=O)c1cccc(I)c1 | inactive |
| O=C(CNC(=O)CNC(=O)c1ccccc1I)NCCc1ccccc1 | inactive |
| COc1cccc(C(=O)NCC(=O)NCC(=O)NCCc2ccccc2)c1 | inactive |
| CNC(=O)CNC(=O)CNC(=O)c1cccc(I)c1 | inactive |
| Cc1cccc(C(=O)NCC(=O)NCC(=O)NCCc2ccccc2)c1 | inactive |
| CCCNC(=O)CNC(=O)CNC(=O)c1cccc(I)c1 | inactive |
